In patent US6218393A, “Anthranilic acid derivatives as multi drug resistance modulators” (priority 1997, dated 2001):

Assays:
AR 1.0 cells [1] = test: Drug accumulation assay: daunorubicin accumulation in AR 1.0 cells; type: cell-based; conditions: Mus musculus, 100% = accumulation with verapamil 100 μM, 1 hr, 37° C.
Procedure, shortened: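 AR 1.0 is the MDR-resistant subline of EMT6 mouse mammary carcinoma, grown in RPMI 1640 with 10% foetal calf serum and 2 mM glutamine at 37 °C, 5% CO2. Cells were seeded 48 h before the daunorubicin accumulation assay.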

H69/LX4 cells = test: Potentiation of toxicity of various cytotoxic agents, H69/LX4 cell line; type: cell-based; conditions: Taxol; for Potentiation Index at RMA concentration 10 nM: RMA 10 nM; for Potentiation Index at RMA concentration 30 nM: RMA 30 nM; for Potentiation Index at RMA concentration 50 nM: RMA 50 nM
Method: (b) Cells were cultured for four days with a titration of doxorubicin (0.263 nM-17.24 μM) in the presence of a fixed concentration of each compound. Proliferation was quantified as described by Skehen et al, loc cit. The IC50 (concentration required to reduce proliferation to 50% of the untreated controls) for doxorubicin alone and with each compound were derived and used to calculate the potentiation index (PI): [formula]
The potentiation indices of a selection of compounds using a variety of cell lines and a variety of cytotoxics other than doxorubicin were measured following the protocol described above for doxorubicin, and the results are shown in Table D.

AR 1.0 cells [2] = test: Potentiation index with doxorubicin titration; type: cell-based, mouse; conditions: for Potentiation Index at RMA concentration 20 nM: Table C1, RMA 20 nM; for Potentiation Index at RMA concentration 50 nM: Table C1, RMA 50 nM; for Potentiation Index at RMA concentration 300 nM: Table C2, RMA 300 nM; for Potentiation Index at RMA concentration 500 nM: Table C2, RMA 500 nM
Procedure, shortened: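 MDR-resistant mouse EMT6 subline AR 1.0 grown four days with a doxorubicin titration (0.263 nM-17.24 μM) plus a fixed compound concentration; proliferation by sulphorhodamine B. Potentiation index derived from doxorubicin IC50 alone versus with compound.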

AR 1.0 cells [3] = test: Potentiation of doxorubicin toxicity: proliferation assay (sulphorhodamine B); type: cell-based, mouse
Text: (a) Selected compounds of formula (I) were examined for their ability to potentiate the toxicity of doxorubicin in AR 1.0 cells.

[4] = Mus musculus, 96 h, compound alone, four day proliferation, read-out: Compound Toxicity (IC50)
[5] = with fixed doxorubicin 0.34 μm, four days, 5760 min, read-out: Toxicity with Cytotoxic Agent (IC50)

IC50 (AR 1.0 cells [1])	Compound	Potentiation Index at RMA concentration 10 nM (H69/LX4 cells)	Potentiation Index at RMA concentration 30 nM (H69/LX4 cells)	Potentiation Index at RMA concentration 50 nM (H69/LX4 cells)	Potentiation Index at RMA concentration 10 nM (AR 1.0 cells [2]; Table C1, RMA 10 nM)	Potentiation Index at RMA concentration 20 nM (AR 1.0 cells [2])	Potentiation Index at RMA concentration 30 nM (AR 1.0 cells [2]; Table C1, RMA 30 nM)	Potentiation Index at RMA concentration 50 nM (AR 1.0 cells [2])	Potentiation Index at RMA concentration 100 nM (AR 1.0 cells [2]; Table C1, RMA 100 nM)	IC50 (AR 1.0 cells [3]; [4])	Potentiation Index at RMA concentration 300 nM (AR 1.0 cells [2])	Potentiation Index at RMA concentration 500 nM (AR 1.0 cells [2])	Potentiation Index at RMA concentration 10 nM (AR 1.0 cells [2]; Table C2, RMA 10 nM)	Potentiation Index at RMA concentration 30 nM (AR 1.0 cells [2]; Table C2, RMA 30 nM)	Potentiation Index at RMA concentration 100 nM (AR 1.0 cells [2]; Table C2, RMA 100 nM)	IC50 (AR 1.0 cells [3]; [5])
224 nM	COc1cc2c(cc1OC)CN(CCc1ccc(NC(=O)c3c(C)csc3NC(=O)c3cnc4ccccc4n3)cc1)CC2 [compound 9608, Quinoxaline-2-carboxylic acid (3-{4-[2-(6,7-dimethoxy-3,4-dihydro-1H-isoquinolin-2-yl)-ethyl]-phenylcarbamoyl}-4-methyl-thiophen-2-yl)-amide]	1.6	17	130	6.7	31	60	118	178	–	–	–	–	–	–	–
98 nM	COc1ccc(CN(C)CCc2ccc(NC(=O)c3ccccc3NC(=O)c3cnc4ccccc4c3)cc2)cc1OC [compound 9613, Quinoline-3-carboxylic acid [2-(4-{2-[(3,4-dimethoxy-benzyl)-methyl-amino]-ethyl}-phenylcarbamoyl)-phenyl]-amide]	2.2	236	877	3	–	35	97	168	–	–	–	–	–	–	–
87 nM	COc1ccc(CN(C)CCc2ccc(NC(=O)c3ccccc3NC(=O)c3cnc4ccccc4n3)cc2)cc1OC [compound 9612, Quinoxaline-2-carboxylic acid [2-(4-{2-[(3,4-dimethoxy-benzyl)-methyl-amino]-ethyl}-phenylcarbamoyl)-phenyl]-amide]	51	894	1329	11	–	95	149	171	–	–	–	–	–	–	–
431 nM	COc1cc2c(cc1OC)CN(CCc1ccc(NC(=O)c3c(C)csc3NC(=O)c3cnc4ccccc4c3)cc1)CC2 [compound 9609, Quinoline-3-carboxylic acid (3-{4-[2-(6,7-dimethoxy-3,4-dihydro-1H-isoquinolin-2-yl)-ethyl]-phenylcarbamoyl}-4-methyl-thiophen-2-yl)-amide]	1	3	9	1.4	3.4	7.4	19	68	–	–	–	–	–	–	–
410 nM	COc1cc2c(cc1OC)CN(CCc1ccc(NC(=O)c3ccccc3NC(=O)c3ccccc3OC)cc1)CC2 [compound 9477, 2-(2-Methoxy-benzoylamino)-N-{4-[2-(617-dimethoxy-3,4-dihydro-1H-isoquinolin-2-yl)-ethyl]-phenyl}-benzamide]	–	–	–	–	–	–	–	–	4000 nM	29	63	–	–	–	–
360 nM	COc1cc2c(cc1OC)CN(CCc1ccc(NC(=O)c3cc(C)ccc3NC(=O)c3cnc4ccccc4c3)cc1)CC2 [compound 9584, Quinoline-3-carboxylic acid (2,-{4-[2-(6,7-dimethoxy-3,4-dihydro-1H-isoquinolin-2-yl)-ethyl]-phenylcarbamoyl}-4-methyl-phenyl)-amide]	–	–	–	–	–	–	–	–	8600 nM	–	–	2.1	36	–	–
250 nM	COc1cc2c(cc1OC)CN(CCc1ccc(NC(=O)c3ccccc3NC(=O)c3c(F)cccc3F)cc1)CC2 [compound 9514, 2-(2,6-Difluoro-benzoylamino)-N-{4-[2-(6,7-dimethoxy-3,4-dihydro-1H-isoquinolin-2-yl)-ethyl]-phenyl}-benzamide]	–	–	–	–	–	–	–	–	7000 nM	40	120	–	–	–	–
278 nM	COc1ccc(CN2CCc3ccc(NC(=O)c4ccccc4NC(=O)c4cnc5ccccc5n4)cc3C2)cc1OC [compound 9614, Quinoxaline-2-carboxylic acid {2-[2-(3,4-dimethoxy-benzyl)-1,2,3,4-tetrahydro-isoquinolin-7-ylcarbamoyl]-phenyl}-amide]	–	1.1	11	2	–	9	32	52	–	–	–	–	–	–	–
200 nM	COc1cc2c(cc1OC)CN(CCc1ccc(NC(=O)c3ccccc3NC(=O)c3cccs3)cc1)CC2 [compound 9471, Thiophene-2-carboxylic acid (2-{4-[2-(6,7-dimethoxy-3,4-dihydro-1H-isoquinolin-2-yl)-ethyl]-phenylcarbamoyl}-phenyl)-amide]	–	–	–	–	–	–	–	–	2600 nM	115	230	–	–	–	–
1000 nM	COc1cc2c(cc1OC)CN(CCNC(=O)c1ccccc1NC(=O)c1ccc(Cc3ccccc3)cc1)CC2 [compound 9442, 2-(4-Benzyl-benzoylamino)-N-[2-(6,7-dimethoxy-3,4-dihydro-1H-isoquinolin-2-yl)-ethyl]-benzamide]	–	–	–	–	–	–	–	–	7200 nM	27	67	–	–	–	50 nM
160 nM	COc1cc2c(cc1OC)CN(CCCc1ccc(NC(=O)c3ccccc3NC(=O)c3cnc4ccccc4n3)cc1)CC2 [compound 9567, Quinoxaline-2-carboxyXic acid (2-{4-[3-(6,7-dimethoxy-3,4-dihydro-1H-isoquinolin-2-yl)-propyl]-phenylcarbamoyl}-phenyl)-amide]	–	–	–	–	–	–	–	–	1700 nM	–	–	1.7	8	112	28 nM
130 nM	COc1cc2c(cc1OC)CN(CCc1ccc(NC(=O)c3ccc(NO)cc3NC(=O)c3cnc4ccccc4n3)cc1)CC2 [compound 9542, Quinoxaline-2-carboxylic acid (2-{4-[2-(6,7-dimethoxy-3,4-dihydro-1H-isoquinolin-2-yl)-ethyl]-phenylcarbamoyl}-5-hydroxyamino-phenyl)-amide]	–	–	–	–	–	–	–	–	1900 nM	160	–	–	–	128	14 nM
22 nM	COc1cc2c(cc1OC)CN(CCc1ccc(NC(=O)c3ccc(F)cc3NC(=O)c3cnc4ccccc4c3)cc1)CC2 [compound 9571, Quinoline-3-carboxylic acid (2-{4-[2-(6,7-dimethoxy-3,4-dihydro-1H-isoquinolin-2-yl)-ethyl]-phenylcarbamoyl}-5-fluoro-phenyl)-amide]	–	–	–	–	–	–	–	–	2000 nM	–	–	38	100	100	0.8 nM
220 nM	COc1cc2c(cc1OC)CN(CCc1ccc(NC(=O)c3ccccc3NC(=O)c3cc4ccccc4o3)cc1)CC2 [compound 9539, Benzofuran-2-carboxylic acid (2-{4-[2-(6,7-dimethoxy-3,4-dihydro-1H-isoquinolin-2-yl)-ethyl]-phenylcarbamoyl}-phenyl)-amide]	–	–	–	–	–	–	–	–	1700 nM	128	–	–	–	32	11 nM
260 nM	COc1cc2c(cc1OC)CN(CCc1ccc(NC(=O)c3ccccc3NC(=O)c3ccc(C)cc3)cc1)CC2 [compound 9504, 2-(4-Methyl-benzoylamino)-N-{4-[2-(6,7-dimethoxy-3,4-dihydro-1H-isoquinolin-2-yl)-ethyl]-phenyl}-benzamide]	–	–	–	–	–	–	–	–	5000 nM	150	267	–	–	34	60 nM

Compound	IC50 (AR 1.0 cells [1])	Potentiation Index at RMA concentration 10 nM (H69/LX4 cells)	Potentiation Index at RMA concentration 30 nM (H69/LX4 cells)	Potentiation Index at RMA concentration 50 nM (H69/LX4 cells)	Potentiation Index at RMA concentration 10 nM (AR 1.0 cells [2]; Table C1, RMA 10 nM)	Potentiation Index at RMA concentration 20 nM (AR 1.0 cells [2])	Potentiation Index at RMA concentration 30 nM (AR 1.0 cells [2]; Table C1, RMA 30 nM)	Potentiation Index at RMA concentration 50 nM (AR 1.0 cells [2])	Potentiation Index at RMA concentration 100 nM (AR 1.0 cells [2]; Table C1, RMA 100 nM)	IC50 (AR 1.0 cells [3]; [4])	Potentiation Index at RMA concentration 300 nM (AR 1.0 cells [2])	Potentiation Index at RMA concentration 500 nM (AR 1.0 cells [2])	Potentiation Index at RMA concentration 10 nM (AR 1.0 cells [2]; Table C2, RMA 10 nM)	Potentiation Index at RMA concentration 30 nM (AR 1.0 cells [2]; Table C2, RMA 30 nM)	Potentiation Index at RMA concentration 100 nM (AR 1.0 cells [2]; Table C2, RMA 100 nM)	IC50 (AR 1.0 cells [3]; [5])
O=C(Nc1ccccc1C(=O)Nc1ccc(CCN2CCc3ccccc3C2)cc1)c1cnc2ccccc2c1 [compound 9577, Quinoline-3-carboxylic acid (2-{4-[2-(3,4-dihydro-1H-isoquinolin-2-yl)-ethyl]-phenylcarbamoyl}-phenyl)-amide]	320 nM	–	–	–	–	–	–	–	–	7700 nM	–	–	2.2	18	112	–
